# Measurements reported in patent publication US8986738B2, “Inhalative and instillative use of semifluorinated alkanes as an active substance carrier in the intrapulmonary area” (NOVALIQ GmbH, priority 2008, dated 2015).
# Assay: Intratracheal bolus instillation of alpha-tocopherol solution in F6H8
# Format: in vivo
# Details: pigs
# Text: In the clinical experiment on pigs some of that solution was intratracheally instilled bolus-wise.
structure (smiles),measurement,value
Cc1c(C)c2c(c(C)c1O)CC[C@@](C)(CCC[C@H](C)CCC[C@H](C)CCCC(C)C)O2 [alpha-tocopherol],location of the drug after exhaling the SFA,remained in the alveolar region
same,transfer of the drug into the bloodstream,no transfer of the drug into the bloodstream was detected
